Reference: patent US9302999B2, “Substituted triazoles as herbicides” (E. I. DU PONT DE NEMOURS AND COMPANY, priority 2012, dated 2016)
Where two headings read alike, the source gives them in different places.

Assays:
Assay type in all cases: in vivo
[1] = system: barnyardgrass (Echinochloa crus-galli); experiment: Test A pre-/postemergence: barnyardgrass; settings: Echinochloa crus-galli, 240 h; for pest or weed control at 125 g/ha: 125 g ai/ha; for pest or weed control at 500 g/ha: 500 g ai/ha
Method in brief: (§1)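 Compounds, formulated with surfactant in non-phytotoxic solvent, were applied as a directed soil spray preemergence and as postemergence sprays to 2–10 cm, one- to two-leaf seedlings grown in loam soil blended with sand; visual injury, 0–100, assessed ~10 days post-treatment against untreated controls.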

[2] = system: crabgrass, large (large crabgrass, Digitaria sanguinalis); experiment: Test A pre-/postemergence: crabgrass, large; settings: Digitaria sanguinalis, 240 h; for pest or weed control at 125 g/ha: 125 g ai/ha; for pest or weed control at 500 g/ha: 500 g ai/ha
Method in brief: as §1

[3] = system: pigweed (Amaranthus retroflexus); experiment: Test A pre-/postemergence: pigweed; settings: Amaranthus retroflexus, 240 h; for pest or weed control at 125 g/ha: 125 g ai/ha; for pest or weed control at 500 g/ha: 500 g ai/ha
Method in brief: as §1

[4] = system: wheat (Triticum aestivum); experiment: Test A pre-/postemergence: wheat; settings: Triticum aestivum, 240 h; for plant injury at 125 g/ha: 125 g ai/ha; for plant injury at 500 g/ha: 500 g ai/ha
Method in brief: as §1

[5] = system: blackgrass (Alopecurus myosuroides); experiment: Test C pre-/postemergence: blackgrass
Method in brief: (§2)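 Visual injury scored 0–100 (100 = complete control) against untreated controls after 13–15 greenhouse days. Surfactant-containing solvent formulations applied either to soil after sowing (loam/sand) or over 1- to 4-leaf plants, 2–18 cm tall.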

corn (Zea mays) = experiment: Test C pre-/postemergence: corn
Method in brief: as §2

[6] = system: large crabgrass (Digitaria sanguinalis); experiment: Test C pre-/postemergence: large crabgrass
Method in brief: as §2

[7] = system: foxtail, giant (giant foxtail, Setaria faberii); experiment: Test C pre-/postemergence: foxtail, giant
Method in brief: as §2

[8] = system: lambsquarters (Chenopodium album); experiment: Test C pre-/postemergence: lambsquarters
Method in brief: as §2

[9] = system: morningglory (Ipomoea coccinea); experiment: Test C pre-/postemergence: morningglory
Method in brief: as §2

[10] = system: nutsedge, yellow (yellow nutsedge, Cyperus esculentus); experiment: Test C pre-/postemergence: nutsedge, yellow
Method in brief: as §2

[11] = Postemergence, 31 g ai/ha, scale 0 to 100 (0 no effect, 100 complete control)
[12] = Postemergence, 62 g ai/ha, scale 0 to 100 (0 no effect, 100 complete control)
[13] = Postemergence, 125 g ai/ha, scale 0 to 100, 0 no effect, 100 complete control
[14] = Postemergence, 250 g ai/ha, scale 0 to 100
[15] = Preemergence, 31 g ai/ha, scale 0 (no effect) to 100 (complete control)
[16] = Preemergence, 62 g ai/ha, scale 0 to 100, 0 no effect, 100 complete control
[17] = Preemergence, 125 g ai/ha, scale 0 to 100, 0 no effect, 100 complete control
[18] = Preemergence, 250 g ai/ha, scale 0 to 100, 0 no effect, 100 complete control
[19] = Postemergence, 250 g ai/ha, scale 0 to 100 (0 no effect, 100 complete control)

CCOc1nn(-c2ccc(F)cc2)nc1Cc1ccnc(C(F)(F)F)c1 [Compound 196, 4-[[5-ethoxy-2-(4-fluorophenyl)-2H-1,2,3-triazol-4-yl]methyl]-2-(trifluoromethyl)pyridine]
15: Plant response rating, Nutsedge, Yellow [10, 13]
90: Plant response rating, Blackgrass [5, 15] | Plant response rating, Blackgrass [5, 16] | Plant response rating, Blackgrass [5, 17] | Plant response rating, Blackgrass [5, 18] | Plant response rating, Foxtail, Giant [7, 13] | Plant response rating, Foxtail, Giant [7, 14] | Plant response rating, Lambsquarters [8, 16]
50: Plant response rating, Corn (corn (Zea mays); [18])
0: Plant response rating, Nutsedge, Yellow [10, 15] | Plant response rating, Nutsedge, Yellow [10, 16]
80%: pest or weed control at 125 g/ha ([1]; post-emergence, Postemergence, 0 to 100 scale, 0 is no effect, 100 is complete control, read-out: Plant response rating, Barnyardgrass)
70%: plant injury at 500 g/ha ([4]; post-emergence, Postemergence, 0 to 100 scale, 0 is no effect, 100 is complete control, read-out: Wheat plant response rating) | plant injury at 500 g/ha ([4]; pre-emergence, Preemergence, 0 to 100 scale (0 no effect, 100 complete control), read-out: Plant response rating, Wheat)
35: Plant response rating, Corn (corn (Zea mays); [16])
100%: pest or weed control at 125 g/ha ([1]; pre-emergence, Preemergence, 0 to 100 scale where 0 is no effect and 100 is complete control, read-out: Plant response rating, Barnyardgrass) | pest or weed control at 500 g/ha ([1]; pre-emergence, Preemergence, 0 to 100 scale (0 no effect, 100 complete control), read-out: Plant response rating, Barnyardgrass) | pest or weed control at 125 g/ha ([2]; pre-emergence, Preemergence, 0 to 100 scale where 0 is no effect and 100 is complete control, read-out: Plant response rating, Crabgrass, Large) | pest or weed control at 500 g/ha ([2]; pre-emergence, Preemergence, 0 to 100 scale (0 no effect, 100 complete control), read-out: Plant response rating, Crabgrass, Large) | pest or weed control at 125 g/ha ([3]; post-emergence, Postemergence, 0 to 100 scale, 0 is no effect, 100 is complete control, read-out: Plant response rating, Pigweed) | pest or weed control at 500 g/ha ([3]; post-emergence, Postemergence, 0 to 100 scale, 0 is no effect, 100 is complete control, read-out: Pigweed plant response rating) | pest or weed control at 125 g/ha ([3]; pre-emergence, Preemergence, 0 to 100 scale where 0 is no effect and 100 is complete control, read-out: Plant response rating, Pigweed) | pest or weed control at 500 g/ha ([3]; pre-emergence, Preemergence, 0 to 100 scale (0 no effect, 100 complete control), read-out: Plant response rating, Pigweed)
95: Plant response rating, Crabgrass, Large [6, 14] | Plant response rating, Lambsquarters [8, 11] | Plant response rating, Lambsquarters [8, 12] | Plant response rating, Lambsquarters [8, 13] | Plant response rating, Lambsquarters [8, 19] | Plant response rating, Lambsquarters [8, 17] | Plant response rating, Lambsquarters [8, 18]
70: Plant response rating, Blackgrass [5, 11]
50%: plant injury at 125 g/ha ([4]; post-emergence, Postemergence, 0 to 100 scale, 0 is no effect, 100 is complete control, read-out: Plant response rating, Wheat) | plant injury at 125 g/ha ([4]; pre-emergence, Preemergence, 0 to 100 scale where 0 is no effect and 100 is complete control, read-out: Plant response rating, Wheat)
100: Plant response rating, Crabgrass, Large [6, 15] | Plant response rating, Crabgrass, Large [6, 16] | Plant response rating, Crabgrass, Large [6, 17] | Plant response rating, Crabgrass, Large [6, 18] | Plant response rating, Foxtail, Giant [7, 15] | Plant response rating, Foxtail, Giant [7, 16] | Plant response rating, Foxtail, Giant [7, 17] | Plant response rating, Foxtail, Giant [7, 18] | Plant response rating, Morningglory [9, 17] | Plant response rating, Morningglory [9, 18]
20: Plant response rating, Nutsedge, Yellow [10, 19]
85: Plant response rating, Crabgrass, Large [6, 12] | Plant response rating, Crabgrass, Large [6, 13] | Plant response rating, Foxtail, Giant [7, 11] | Plant response rating, Foxtail, Giant [7, 12] | Plant response rating, Lambsquarters [8, 15] | Plant response rating, Morningglory [9, 16]
5: Plant response rating, Nutsedge, Yellow [10, 17]
65: Plant response rating, Corn (corn (Zea mays); [13]) | Plant response rating, Corn (corn (Zea mays); [14])
80: Plant response rating, Blackgrass [5, 12] | Plant response rating, Blackgrass [5, 13] | Plant response rating, Blackgrass [5, 14] | Plant response rating, Crabgrass, Large [6, 11]
75: Plant response rating, Morningglory [9, 11] | Plant response rating, Morningglory [9, 12] | Plant response rating, Morningglory [9, 13] | Plant response rating, Morningglory [9, 19]
10: Plant response rating, Nutsedge, Yellow [10, 11] | Plant response rating, Nutsedge, Yellow [10, 12] | Plant response rating, Nutsedge, Yellow [10, 18]
25: Plant response rating, Corn (corn (Zea mays); [15])
60: Plant response rating, Corn (corn (Zea mays); [11]) | Plant response rating, Corn (corn (Zea mays); [12])
90%: pest or weed control at 500 g/ha ([1]; post-emergence, Postemergence, 0 to 100 scale, 0 is no effect, 100 is complete control, read-out: Barnyardgrass plant response rating) | pest or weed control at 125 g/ha ([2]; post-emergence, Postemergence, 0 to 100 scale, 0 is no effect, 100 is complete control, read-out: Plant response rating, Crabgrass, Large) | pest or weed control at 500 g/ha ([2]; post-emergence, Postemergence, 0 to 100 scale, 0 is no effect, 100 is complete control, read-out: Crabgrass, Large plant response rating)
45: Plant response rating, Corn (corn (Zea mays); [17])
40: Plant response rating, Morningglory [9, 15]
